Data published in ChEMBL document CHEMBL1201862, “PubChem BioAssay data set” (2004).
Calls of active or inactive are those of the source.

Assays:
[1] = biological target: Mu-type opioid receptor (Homo sapiens, UniProt P35372); type: functional, cell-based;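 also: U2OS cells with beta-arrestin recruitment to OPRM1 by beta-gal complementation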
[2] = biological target: 5-hydroxytryptamine receptor 2A (Mus musculus, UniProt P35363); type: functional, cell-based;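 also: CHO-K1 cells with tagged receptor and beta-arrestin; agonist potency measured as compound-induced activation of the receptor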
[3] = biological target: Beta-2 adrenergic receptor (Homo sapiens, UniProt P07550); test: beta2AR agonists driving receptor internalization, dose response, cell-based, FAP fluorogen, flow cytometry, cherry pick 1 (AID 588763); type: functional
[4] = biological target: T1, Small ubiquitin-related modifier 1 (Homo sapiens, UniProt P63165); test: inhibitors of SUMO1 peptide binding, dose response, biochemical, fluorescence polarization, uHTS hits (AID 624382); type: functional; conditions: read-out: IC50_Mean
[5] = THP-1 cell cytotoxicity, dose response, cytotoxicity control for Vif-APOBEC3G degradation inhibitor project, THP-1 cells (AID 1117359); type: functional; conditions: Human immunodeficiency virus 1, THP-1
[6] = biological target: Beta-adrenergic receptor kinase 1 (Homo sapiens, UniProt P25098); test: aptamer displacement from bead-bound GRK2 – biochemical, cherry pick 1, bead flow cytometry, dose response (AID 504500)
[7] = biological target: T1, Small ubiquitin-related modifier 1; test: inhibitors of SUMO1 partner interactions, dose response, biochemical, FRET (AID 624383); type: functional; conditions: read-out: IC50_Mean
[8] = biological target: DNA dC->dU-editing enzyme APOBEC-3G (Homo sapiens, UniProt Q9HC16); test: Dose Response confirmation of small molecule APOBEC3G DNA Deaminase Inhibitors via a fluorescence-based single-stranded DNA deaminase assay. [Related pubchem assays (depositor defined):AID493012, AID493028]; type: functional
[9] = biological target: T2, Carboxy-terminal domain RNA polymerase II polypeptide A small phosphatase 1 (Homo sapiens, UniProt Q9GZU7); test: inhibitors of CTDSP1, concentration-response testing, biochemical assay, absorbance-based, actives from ultra-high-throughput screening (AID 540297); type: functional
T2 sequence (Q9GZU7 whole entry): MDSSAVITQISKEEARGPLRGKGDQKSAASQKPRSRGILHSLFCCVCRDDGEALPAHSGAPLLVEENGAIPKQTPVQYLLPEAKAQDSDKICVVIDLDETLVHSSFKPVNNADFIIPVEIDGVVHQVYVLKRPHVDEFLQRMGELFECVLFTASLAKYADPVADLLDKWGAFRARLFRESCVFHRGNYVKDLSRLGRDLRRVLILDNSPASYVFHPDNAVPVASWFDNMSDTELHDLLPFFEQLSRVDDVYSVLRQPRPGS

[10] = biological target: DNA dC->dU-editing enzyme APOBEC-3A (Homo sapiens, UniProt P31941); test: APOBEC3A DNA deaminase inhibitors, dose response, biochemical (AID 504722); type: functional
[11] = system: BJ; test: cytotoxicity toward BJ-TERT fibroblasts, dose response, cell-based, RAS-independent, luminescence (AID 1933); type: functional; conditions: Homo sapiens
[12] = inhibitors of clade B AD8 Env fusion, dose response, cell-based, cherry-pick (AID 652062); type: functional;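 also: luciferase signal from cell-cell fusion driven by HIV-1 clade B AD8 Env; potency is for inhibitors of fusion seen as a drop in luminescence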
[13] = biological target: Mitochondrial peptide methionine sulfoxide reductase (Bos taurus, UniProt P54149); type: functional;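 also: absorbance read-out, biochemical high-throughput dose-response screen for MsrA inhibitors, confirmatory; recombinant bovine MsrA coupled to E. coli TrxB with NADPH and selenocystamine; potency is for inhibitors of MsrA activity on DMSO substrate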
[14] = biological target: T3, V-type proton ATPase subunit c' (Saccharomyces cerevisiae S288c, UniProt P32842); test: Dose Response of Small Molecules that Regulate V-ATPase Proton Transport in Yeast using pHLuorin, Cherry Pick 2.; type: functional; conditions: read-out: EC50_MICROM
[15] = inhibitors of firefly luciferase expression or activity, dose response, H4 neuroglioma cells, luminescence (AID 1990); type: functional, cell-based
[16] = Luminescence-based dose response cell-based high throughput screening assay for cytotoxic compounds using the IEC-6 intestinal epithelial cell line. [Related pubchem assays: 1858 (Summary AID.), 1825 (Counterscreen.), 1907 (Confirmation screen.)]; type: functional
[17] = system: BJ; test: cells; type: functional, cell-based; conditions: Homo sapiens
[18] = inhibitors of HIV Env-driven cell fusion, dose response, cherry-pick (AID 652057); type: functional, cell-based
[19] = system: BJ; test: cytotoxicity toward Ras-transformed BJeLR fibroblasts, dose response, cell-based, alamar blue fluorescence, cherrypicked samples (AID 2631); type: functional; conditions: Homo sapiens;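 also: confirmatory dose-response assay in RAS-dependent BJ fibroblasts engineered with TERT, LT and ST, with cytotoxicity read by fluorescence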
[20] = off-target signal loss in HeLa-CEM21 co-culture – HeLa F-luc CTL cells, cherry-picked, counter-screen for HIV-1 Env fusion inhibitor project, dose response (AID 652040); type: functional, cell-based;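 also: potency for signal decrease marking cytotoxic or nonspecific inhibition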
[21] = ZM109 Env clade C HIV-1 fusion inhibitors, dose response, HeLa effector, CEM target cells, luciferase, cherry-pick (AID 652058); type: functional, cell-based
[22] = biological target: T4, Fatty acid synthase (Homo sapiens, UniProt P49327); test: FAS thioesterase domain inhibitors, dose response, biochemical, endpoint fluorescence intensity, uHTS hits (AID 624327); type: functional;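 also: fluorescence from hydrolysis of an O-methyl fluorescein acyl ester substrate by the enzyme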
[23] = cytotoxicity in HEK-293T cells, dose response, cytotoxicity control for TCR NF-kB inhibitor project, luminescence, T-cell screen hits (AID 489026); type: functional, cell-based;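 also: cells exposed to compound about 14 hours before the viability readout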
[24] = biological target: T4, Fatty acid synthase; test: FAS thioesterase domain inhibitors, dose response, biochemical, kinetic fluorescence intensity (AID 624326); type: functional;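 also: rate of fluorescence rise from hydrolysis of a fluorogenic O-methyl fluorescein ester substrate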
[25] = inhibitors of SNCA 5'UTR-driven reporter translation, confirmation, H4 neuroglioma cells, luminescence (AID 1988); type: functional, cell-based
[26] = CEM21 lymphoblast cell cytotoxicity, dose response, cytotoxicity control for viral fusion inhibitor project, CellTiter-Glo luminescence, cherry-picked (AID 652042); type: functional, cell-based;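 also: potency for signal decrease meaning cytotoxicity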
[27] = biological target: T5, Heat shock factor protein 1 (Mus musculus, UniProt P38532); test: inhibition of MG132-induced HSE-luciferase signal, confirmation, cell-based, NIH3T3, luminescence, dose retest (AID 2382); type: functional;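 also: NIH3T3 fibroblasts with HSF1-driven luciferase reporter stressed by proteasome inhibitor MG132; luminescence from HSF1-driven luciferase expression after 8 hours of MG132 stress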
T5 sequence (P38532 whole entry): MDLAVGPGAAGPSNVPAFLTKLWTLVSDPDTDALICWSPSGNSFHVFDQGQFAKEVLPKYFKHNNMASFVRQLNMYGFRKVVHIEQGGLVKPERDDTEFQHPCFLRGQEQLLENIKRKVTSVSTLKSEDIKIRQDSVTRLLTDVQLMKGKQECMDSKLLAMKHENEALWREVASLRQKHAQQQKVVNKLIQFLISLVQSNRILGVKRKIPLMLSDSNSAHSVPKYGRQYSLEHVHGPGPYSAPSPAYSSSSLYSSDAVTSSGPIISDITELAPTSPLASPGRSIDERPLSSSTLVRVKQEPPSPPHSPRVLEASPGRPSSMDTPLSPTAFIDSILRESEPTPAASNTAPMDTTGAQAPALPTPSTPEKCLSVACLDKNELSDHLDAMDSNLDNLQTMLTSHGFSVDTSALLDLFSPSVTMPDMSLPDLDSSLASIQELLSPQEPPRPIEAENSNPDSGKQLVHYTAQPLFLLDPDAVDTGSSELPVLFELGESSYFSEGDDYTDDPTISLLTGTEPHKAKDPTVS

[28] = C. albicans growth with fluconazole, confirmation, fluorescence, retest (AID 2467); type: functional, cell-based
[29] = biological target: T3, V-type proton ATPase subunit c'; test: Dose Response of Small Molecules that Regulate V-ATPase Proton Transport in Yeast using pHLuorin, Cherry Pick 1. [Related pubchem assays (depositor defined):AID504622]; type: functional
[30] = biological target: Heat shock protein HSP 90-alpha (Homo sapiens, UniProt P07900); type: functional, organism-based
[31] = Luminescence Cell-Based Dose Response HTS to Identify Inhibitors of 5'UTR Stem-Loop Driven Prion Protein mRNA Translation in H4 Neuroglioblastoma Cells. [Related pubchem assays: 1827 (Project Summary), 1813 (Primary HTS)]; type: functional
[32] = NIH-3T3 fibroblast cytotoxicity, dose response, cytotoxicity control, cell-based, fluorescence, Alamar Blue, secondary assay (AID 2327); type: functional;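 also: NIH-3T3 mouse fibroblasts cultured with fluconazole at 8 µg/mL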
[33] = system: BJ; test: cytotoxicity toward BJ-TERT-LT-ST fibroblasts, dose response, cell-based, RAS-independent, luminescence (AID 1935); type: functional; conditions: Homo sapiens;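 also: BJ fibroblasts immortalized with TERT plus LT and ST oncogenes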
[34] = cytotoxicity toward DRD oncogenic fibroblasts, dose response, cell-based, non-viral oncogenic, luminescence (AID 1934); type: functional; conditions: Homo sapiens

T1 sequence (P63165 whole entry): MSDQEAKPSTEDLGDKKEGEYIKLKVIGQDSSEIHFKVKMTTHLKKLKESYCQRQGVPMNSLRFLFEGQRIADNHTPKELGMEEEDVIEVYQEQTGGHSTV
T3 sequence (P32842 whole entry): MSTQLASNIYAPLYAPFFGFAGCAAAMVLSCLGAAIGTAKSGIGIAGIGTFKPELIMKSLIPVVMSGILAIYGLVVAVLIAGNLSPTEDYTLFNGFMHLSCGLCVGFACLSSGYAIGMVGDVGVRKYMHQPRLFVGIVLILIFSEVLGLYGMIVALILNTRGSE
T4 sequence (P49327 whole entry, the tested form may be a part): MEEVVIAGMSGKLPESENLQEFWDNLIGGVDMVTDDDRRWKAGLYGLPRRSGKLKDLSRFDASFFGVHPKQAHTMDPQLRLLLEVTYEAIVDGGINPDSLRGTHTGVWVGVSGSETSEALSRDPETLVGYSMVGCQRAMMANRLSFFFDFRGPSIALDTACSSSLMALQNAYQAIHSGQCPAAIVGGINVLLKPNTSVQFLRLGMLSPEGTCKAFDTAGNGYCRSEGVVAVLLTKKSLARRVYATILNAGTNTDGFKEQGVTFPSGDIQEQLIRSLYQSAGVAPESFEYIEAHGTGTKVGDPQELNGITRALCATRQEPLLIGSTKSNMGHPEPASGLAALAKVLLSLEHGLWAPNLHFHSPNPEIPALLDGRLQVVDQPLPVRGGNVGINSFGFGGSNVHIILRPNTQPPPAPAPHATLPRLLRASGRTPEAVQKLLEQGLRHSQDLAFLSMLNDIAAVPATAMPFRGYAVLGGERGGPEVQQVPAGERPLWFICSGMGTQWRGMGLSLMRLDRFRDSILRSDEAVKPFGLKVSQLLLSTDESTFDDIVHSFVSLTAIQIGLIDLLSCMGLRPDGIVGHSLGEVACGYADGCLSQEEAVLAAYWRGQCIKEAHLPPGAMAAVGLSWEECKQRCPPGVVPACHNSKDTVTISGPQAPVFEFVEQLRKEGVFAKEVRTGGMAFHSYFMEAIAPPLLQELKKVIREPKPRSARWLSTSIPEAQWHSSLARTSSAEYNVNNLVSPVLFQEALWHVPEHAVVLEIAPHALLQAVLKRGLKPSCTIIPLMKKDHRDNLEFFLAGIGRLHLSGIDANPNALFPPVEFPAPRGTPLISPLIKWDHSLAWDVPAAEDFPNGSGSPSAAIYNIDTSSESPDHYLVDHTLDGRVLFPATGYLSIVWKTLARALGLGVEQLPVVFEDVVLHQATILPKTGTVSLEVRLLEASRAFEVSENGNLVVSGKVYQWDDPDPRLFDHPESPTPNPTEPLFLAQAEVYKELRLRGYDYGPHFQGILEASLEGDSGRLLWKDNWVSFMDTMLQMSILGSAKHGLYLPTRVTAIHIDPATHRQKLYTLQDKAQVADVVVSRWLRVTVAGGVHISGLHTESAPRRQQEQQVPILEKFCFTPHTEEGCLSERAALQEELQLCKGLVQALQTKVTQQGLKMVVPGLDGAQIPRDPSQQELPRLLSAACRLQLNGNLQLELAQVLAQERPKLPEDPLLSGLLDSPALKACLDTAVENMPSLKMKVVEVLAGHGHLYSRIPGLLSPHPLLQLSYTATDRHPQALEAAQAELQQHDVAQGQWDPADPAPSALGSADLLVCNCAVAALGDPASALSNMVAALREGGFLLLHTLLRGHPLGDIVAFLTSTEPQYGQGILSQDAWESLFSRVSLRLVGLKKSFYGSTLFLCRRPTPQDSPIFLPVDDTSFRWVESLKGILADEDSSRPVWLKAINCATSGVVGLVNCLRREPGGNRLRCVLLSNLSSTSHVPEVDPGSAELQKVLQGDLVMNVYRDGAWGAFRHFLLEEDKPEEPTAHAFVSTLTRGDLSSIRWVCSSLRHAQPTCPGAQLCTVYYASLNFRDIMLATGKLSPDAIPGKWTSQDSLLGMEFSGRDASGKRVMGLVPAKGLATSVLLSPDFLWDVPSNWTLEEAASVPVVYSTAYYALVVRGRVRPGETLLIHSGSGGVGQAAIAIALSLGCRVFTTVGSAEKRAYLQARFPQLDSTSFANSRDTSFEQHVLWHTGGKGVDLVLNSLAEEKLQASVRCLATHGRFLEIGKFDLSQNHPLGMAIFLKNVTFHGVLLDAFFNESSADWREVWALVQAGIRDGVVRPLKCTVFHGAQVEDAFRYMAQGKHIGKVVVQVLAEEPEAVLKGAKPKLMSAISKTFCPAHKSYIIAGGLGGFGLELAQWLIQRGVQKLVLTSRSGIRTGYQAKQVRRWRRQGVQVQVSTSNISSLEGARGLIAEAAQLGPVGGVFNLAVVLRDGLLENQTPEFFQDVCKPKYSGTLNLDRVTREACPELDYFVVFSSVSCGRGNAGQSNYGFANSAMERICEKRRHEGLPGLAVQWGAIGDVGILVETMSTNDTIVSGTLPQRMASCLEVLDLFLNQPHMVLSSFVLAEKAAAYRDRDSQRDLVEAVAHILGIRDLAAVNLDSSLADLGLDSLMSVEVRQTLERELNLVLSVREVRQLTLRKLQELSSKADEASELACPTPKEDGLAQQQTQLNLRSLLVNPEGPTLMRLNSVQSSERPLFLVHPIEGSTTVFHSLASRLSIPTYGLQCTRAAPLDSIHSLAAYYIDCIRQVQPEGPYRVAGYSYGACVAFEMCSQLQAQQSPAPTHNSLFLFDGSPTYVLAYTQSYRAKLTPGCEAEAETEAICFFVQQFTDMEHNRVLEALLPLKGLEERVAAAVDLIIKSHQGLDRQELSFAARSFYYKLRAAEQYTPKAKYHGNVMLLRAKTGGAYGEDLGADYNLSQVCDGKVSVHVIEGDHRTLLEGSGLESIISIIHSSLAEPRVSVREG
Sequence of 5-hydroxytryptamine receptor 2A (P35363 whole entry): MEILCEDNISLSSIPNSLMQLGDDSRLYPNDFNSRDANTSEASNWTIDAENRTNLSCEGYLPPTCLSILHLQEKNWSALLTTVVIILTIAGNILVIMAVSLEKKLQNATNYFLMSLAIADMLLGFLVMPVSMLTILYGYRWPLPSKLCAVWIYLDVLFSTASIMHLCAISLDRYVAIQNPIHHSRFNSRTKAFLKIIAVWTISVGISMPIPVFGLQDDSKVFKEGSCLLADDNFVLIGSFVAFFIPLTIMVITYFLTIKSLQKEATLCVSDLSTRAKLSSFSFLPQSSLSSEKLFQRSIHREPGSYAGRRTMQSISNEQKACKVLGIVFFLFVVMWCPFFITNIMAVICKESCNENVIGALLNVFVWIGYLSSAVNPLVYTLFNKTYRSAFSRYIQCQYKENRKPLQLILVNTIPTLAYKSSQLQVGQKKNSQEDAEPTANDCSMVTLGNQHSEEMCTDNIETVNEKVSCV
Sequence of Beta-adrenergic receptor kinase 1 (P25098 whole entry): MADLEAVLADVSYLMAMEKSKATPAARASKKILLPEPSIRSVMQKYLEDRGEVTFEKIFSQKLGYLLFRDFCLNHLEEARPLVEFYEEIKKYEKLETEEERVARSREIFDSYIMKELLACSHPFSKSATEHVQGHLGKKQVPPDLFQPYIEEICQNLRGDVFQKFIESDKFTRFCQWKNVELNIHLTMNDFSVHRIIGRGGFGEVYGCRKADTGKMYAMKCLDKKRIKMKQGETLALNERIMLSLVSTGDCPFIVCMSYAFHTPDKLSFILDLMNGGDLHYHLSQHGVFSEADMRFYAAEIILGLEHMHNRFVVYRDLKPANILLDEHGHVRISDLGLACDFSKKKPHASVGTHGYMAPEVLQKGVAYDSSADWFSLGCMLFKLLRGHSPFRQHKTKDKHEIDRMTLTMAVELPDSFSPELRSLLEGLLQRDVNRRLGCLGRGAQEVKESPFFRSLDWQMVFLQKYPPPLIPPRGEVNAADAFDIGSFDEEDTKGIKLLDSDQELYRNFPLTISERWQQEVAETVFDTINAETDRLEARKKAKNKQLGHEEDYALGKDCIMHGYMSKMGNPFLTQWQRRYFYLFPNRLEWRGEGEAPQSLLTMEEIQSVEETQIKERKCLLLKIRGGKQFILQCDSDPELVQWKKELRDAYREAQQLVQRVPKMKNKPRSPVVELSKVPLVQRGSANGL
Sequence of DNA dC->dU-editing enzyme APOBEC-3A (P31941 whole entry): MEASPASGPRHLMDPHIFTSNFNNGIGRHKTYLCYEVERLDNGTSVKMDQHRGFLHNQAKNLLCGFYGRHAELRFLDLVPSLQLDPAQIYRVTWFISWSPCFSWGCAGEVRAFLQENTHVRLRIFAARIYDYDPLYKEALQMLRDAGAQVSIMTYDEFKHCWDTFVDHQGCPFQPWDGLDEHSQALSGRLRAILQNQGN
Sequence of Mu-type opioid receptor (P35372 whole entry): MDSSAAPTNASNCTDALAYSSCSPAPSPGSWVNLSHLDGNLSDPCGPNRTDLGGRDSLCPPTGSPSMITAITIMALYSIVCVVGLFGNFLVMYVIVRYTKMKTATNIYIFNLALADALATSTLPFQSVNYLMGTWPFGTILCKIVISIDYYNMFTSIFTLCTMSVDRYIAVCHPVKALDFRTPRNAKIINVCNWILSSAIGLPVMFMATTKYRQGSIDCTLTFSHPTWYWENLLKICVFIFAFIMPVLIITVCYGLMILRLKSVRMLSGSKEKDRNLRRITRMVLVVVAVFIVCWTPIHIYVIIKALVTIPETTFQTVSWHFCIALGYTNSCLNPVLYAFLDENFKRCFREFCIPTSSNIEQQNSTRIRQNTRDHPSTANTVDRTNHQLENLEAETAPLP
Sequence of DNA dC->dU-editing enzyme APOBEC-3G (Q9HC16 whole entry, the tested form may be a part): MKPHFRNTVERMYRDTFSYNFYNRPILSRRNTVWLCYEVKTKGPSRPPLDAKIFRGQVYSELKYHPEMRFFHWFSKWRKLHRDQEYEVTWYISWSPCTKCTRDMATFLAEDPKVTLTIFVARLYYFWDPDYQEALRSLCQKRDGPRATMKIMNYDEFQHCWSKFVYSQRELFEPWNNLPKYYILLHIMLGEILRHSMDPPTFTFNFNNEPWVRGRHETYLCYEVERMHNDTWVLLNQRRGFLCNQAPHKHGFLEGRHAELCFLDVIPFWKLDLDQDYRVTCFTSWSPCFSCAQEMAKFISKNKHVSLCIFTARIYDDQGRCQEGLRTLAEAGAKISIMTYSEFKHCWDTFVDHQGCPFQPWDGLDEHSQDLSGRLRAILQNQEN

**Q.** Which EC50 [1] does the source give for `CC(=O)N1CCc2cc(C(=O)CN3CCN(c4cccc(Cl)c4)CC3)ccc21` here?
**A.** Its EC50 is 92500 nM (inactive).

**Q.** And the EC50 [2]?
**A.** Its EC50 is 133 nM (active).

**Q.** What about the EC50 [3] of the same molecule?
**A.** The EC50 was 47.2 nM (active).

**Q.** For `C=C(C)C(=O)Nc1cccc(C2=NOC3(C2)C[C@@H](C(N)=O)N(C(=O)CC(c2ccccc2)c2ccccc2)C3)c1` (some centres undefined), which IC50 [4] is on record?
**A.** Its IC50 is > 66600 nM (inactive).

**Q.** And the CC50 [5]?
**A.** Its CC50 is > 40000 nM (active).

**Q.** What about the EC50 [6] of the same molecule?
**A.** The EC50 was 1940 nM (active).

**Q.** And the IC50 [7]?
**A.** Its IC50 is 5400 nM (active).

**Q.** And the IC50 [8]?
**A.** The IC50 was 15300 nM (active).

**Q.** What about the IC50 [9] of the same molecule?
**A.** Its IC50 is 6380 nM (active).

**Q.** What about the IC50 [10] of the same molecule?
**A.** Its IC50 is > 100000 nM (inactive).

**Q.** For `CCOC(=O)NN=C1c2ccccc2-c2nc3nonc3nc21`, which EC50 [11] is on record?
**A.** Its EC50 is 2330 nM (active).

**Q.** And the AC50 [12]?
**A.** Its AC50 is 3360 nM (active).

**Q.** And the IC50 [13]?
**A.** Its IC50 is 155000 nM (inactive).

**Q.** And the EC50 [14]?
**A.** Its EC50 is 2370 nM (active).

**Q.** What about the EC50 [15] of the same molecule?
**A.** The EC50 was 234 nM (active).

**Q.** And the IC50 [16]?
**A.** Its IC50 is 223 nM (active).

**Q.** What about the EC50 [17] of the same molecule?
**A.** The EC50 was 587 nM (inconclusive).

**Q.** And the AC50 [18]?
**A.** The AC50 was 4410 nM (active).

**Q.** And the EC50 [19]?
**A.** Its EC50 is 1860 nM (active).

**Q.** What about the AC50 [20] of the same molecule?
**A.** The AC50 was 3560 nM (active).

**Q.** And the AC50 [21]?
**A.** Its AC50 is 2960 nM (active).

**Q.** And the IC50 [22]?
**A.** The IC50 was 1670 nM (active).

**Q.** What about the IC50 [23] of the same molecule?
**A.** Its IC50 is 3200 nM (active).

**Q.** And the IC50 [24]?
**A.** Its IC50 is 859 nM (active).

**Q.** What about the EC50 [25] of the same molecule?
**A.** The EC50 was 131 nM (active).

**Q.** And the AC50 [26]?
**A.** The AC50 was 1700 nM (active).

**Q.** What about the EC50 [27] of the same molecule?
**A.** The EC50 was 3640 nM (active).

**Q.** What about the EC50 [28] of the same molecule?
**A.** The EC50 was 83 nM (active).

**Q.** And the EC50 [29]?
**A.** Its EC50 is 27100 nM (active).

**Q.** What about the AC50 [30] of the same molecule?
**A.** Its AC50 is 1260 nM (active).

**Q.** What about the EC50 [31] of the same molecule?
**A.** Its EC50 is 593 nM (active).

**Q.** And the EC50 [32]?
**A.** Its EC50 is 1710 nM (active).

**Q.** What about the EC50 [33] of the same molecule?
**A.** The EC50 was 1350 nM (inconclusive).

**Q.** What about the EC50 [34] of the same molecule?
**A.** Its EC50 is 2390 nM (active).
